Reference: paper PMC4955205, “EctD-mediated biotransformation of the chemical chaperone ectoine into hydroxyectoine and its mechanosensitive channel-independent excretion” (Microbial Cell Factories, 2016)

Experiments:
Type in all cases: cell-based
EctD (N. maritimus) = biological target: T1, EctD (N. maritimus) (Nitrosopumilus maritimus, UniProt A9A2K0); experiment: whole-cell biotransformation in E. coli FF4169, HPLC; conditions: 10 mM ectoine in medium, MMA with 0.4 M NaCl, 37 °C, 24 h; Fe(II) and 2-oxoglutarate of the cell
T1 construct: gene Nmar_1343; full length, Strep-tag II, codon-optimized gene, plasmid pMP45, expressed in E. coli FF4169
T1 sequence (A9A2K0 1-304): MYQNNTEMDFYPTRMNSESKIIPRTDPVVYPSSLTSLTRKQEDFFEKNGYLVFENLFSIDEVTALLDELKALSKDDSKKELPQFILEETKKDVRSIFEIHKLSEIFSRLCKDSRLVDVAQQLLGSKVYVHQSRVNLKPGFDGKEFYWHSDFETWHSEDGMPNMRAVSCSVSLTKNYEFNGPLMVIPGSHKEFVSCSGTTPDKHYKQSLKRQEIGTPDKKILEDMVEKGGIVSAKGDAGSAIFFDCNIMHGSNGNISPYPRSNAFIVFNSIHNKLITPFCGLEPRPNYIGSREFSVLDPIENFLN

EctD (H. elongata) = biological target: T2, EctD (H. elongata) (Halomonas elongata, UniProt E1VA04); experiment: as above; conditions: 10 mM ectoine in medium, MMA with 0.4 M NaCl, 37 °C, 24 h; Fe(II) and 2-oxoglutarate of the cell
T2 construct: full length, Strep-tag II, plasmid pMP32, expressed in E. coli FF4169
T2 sequence (E1VA04 1-332): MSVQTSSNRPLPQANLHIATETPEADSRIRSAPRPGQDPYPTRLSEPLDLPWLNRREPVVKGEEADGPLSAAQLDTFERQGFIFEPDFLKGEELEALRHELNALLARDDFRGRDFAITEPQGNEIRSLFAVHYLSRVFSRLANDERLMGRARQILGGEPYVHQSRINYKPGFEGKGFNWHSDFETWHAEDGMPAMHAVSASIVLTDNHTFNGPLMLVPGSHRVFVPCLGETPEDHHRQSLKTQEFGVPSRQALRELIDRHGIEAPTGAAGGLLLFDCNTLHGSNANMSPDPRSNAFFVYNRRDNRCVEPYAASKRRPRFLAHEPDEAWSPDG

EctD (A. ehrlichii) = biological target: T3, EctD (A. ehrlichii) (Alkalilimnicola ehrlichii, UniProt A0A3E0X329); experiment: as above; conditions: 10 mM ectoine in medium, MMA with 0.4 M NaCl, 37 °C, 24 h; Fe(II) and 2-oxoglutarate of the cell
T3 construct: gene CAL65_03675; full length, Strep-tag II, codon-optimized gene, plasmid pMP44, expressed in E. coli FF4169
T3 sequence (A0A3E0X329 1-303): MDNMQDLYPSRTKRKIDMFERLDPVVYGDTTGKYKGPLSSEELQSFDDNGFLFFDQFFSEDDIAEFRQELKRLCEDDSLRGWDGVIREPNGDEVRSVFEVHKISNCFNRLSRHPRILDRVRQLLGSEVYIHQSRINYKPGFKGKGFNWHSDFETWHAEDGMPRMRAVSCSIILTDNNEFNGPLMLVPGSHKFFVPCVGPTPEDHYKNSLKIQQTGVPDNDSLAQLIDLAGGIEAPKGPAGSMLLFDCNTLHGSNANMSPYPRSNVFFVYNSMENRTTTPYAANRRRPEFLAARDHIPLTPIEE

EctD (P. lautus) = biological target: T4, EctD (P. lautus) (Paenibacillus lautus, UniProt A0A385TC02); experiment: as above; conditions: 10 mM ectoine in medium, MMA with 0.4 M NaCl, 37 °C, 24 h; Fe(II) and 2-oxoglutarate of the cell
T4 construct: gene thpD; full length, Strep-tag II, codon-optimized gene, plasmid pMP43, expressed in E. coli FF4169
T4 sequence (A0A385TC02 1-302): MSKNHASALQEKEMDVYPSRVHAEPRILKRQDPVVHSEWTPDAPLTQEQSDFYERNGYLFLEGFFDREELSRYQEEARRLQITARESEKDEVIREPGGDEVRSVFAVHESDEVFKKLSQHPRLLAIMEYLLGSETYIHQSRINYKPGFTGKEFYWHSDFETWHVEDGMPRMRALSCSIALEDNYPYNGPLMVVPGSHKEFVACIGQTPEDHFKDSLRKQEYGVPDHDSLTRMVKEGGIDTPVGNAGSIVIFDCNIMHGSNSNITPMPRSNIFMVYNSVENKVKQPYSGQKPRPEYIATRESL

ProU ABC transporter = biological target: T5, ProU ABC transporter (Escherichia coli, UniProt P0AFM2); experiment: inhibition of [[…]-14C]glycine betaine uptake, whole cells of ProP- ProU+ strain; conditions: 100 µM [1-14C]glycine betaine, MMA with 0.4 M NaCl, 37 °C, 5 min
T5 construct: gene proX; native chromosomal transporter in whole cells of a proP deletion strain; with Glycine betaine/proline betaine transport system permease protein ProW
T5 sequence (P14176 whole entry): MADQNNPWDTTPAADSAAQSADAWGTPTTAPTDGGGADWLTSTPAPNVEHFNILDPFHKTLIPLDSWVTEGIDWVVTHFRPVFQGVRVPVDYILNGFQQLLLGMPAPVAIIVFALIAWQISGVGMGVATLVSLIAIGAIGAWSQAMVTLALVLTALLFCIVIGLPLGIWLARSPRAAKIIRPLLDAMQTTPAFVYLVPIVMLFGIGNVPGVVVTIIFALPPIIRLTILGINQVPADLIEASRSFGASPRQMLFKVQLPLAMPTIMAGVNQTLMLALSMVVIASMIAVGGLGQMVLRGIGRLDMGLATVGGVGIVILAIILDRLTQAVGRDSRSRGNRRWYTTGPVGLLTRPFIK
T5 sequence (P0AFM2 22-330): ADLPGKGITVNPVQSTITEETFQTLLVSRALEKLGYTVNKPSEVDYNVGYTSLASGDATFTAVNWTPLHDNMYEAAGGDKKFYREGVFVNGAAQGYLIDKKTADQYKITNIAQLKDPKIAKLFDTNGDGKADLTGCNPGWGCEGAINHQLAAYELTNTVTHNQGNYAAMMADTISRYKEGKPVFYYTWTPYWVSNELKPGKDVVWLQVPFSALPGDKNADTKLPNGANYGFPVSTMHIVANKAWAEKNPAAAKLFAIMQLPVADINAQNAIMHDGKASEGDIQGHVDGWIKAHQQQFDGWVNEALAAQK
T5 sequence (P14175 whole entry, further chain): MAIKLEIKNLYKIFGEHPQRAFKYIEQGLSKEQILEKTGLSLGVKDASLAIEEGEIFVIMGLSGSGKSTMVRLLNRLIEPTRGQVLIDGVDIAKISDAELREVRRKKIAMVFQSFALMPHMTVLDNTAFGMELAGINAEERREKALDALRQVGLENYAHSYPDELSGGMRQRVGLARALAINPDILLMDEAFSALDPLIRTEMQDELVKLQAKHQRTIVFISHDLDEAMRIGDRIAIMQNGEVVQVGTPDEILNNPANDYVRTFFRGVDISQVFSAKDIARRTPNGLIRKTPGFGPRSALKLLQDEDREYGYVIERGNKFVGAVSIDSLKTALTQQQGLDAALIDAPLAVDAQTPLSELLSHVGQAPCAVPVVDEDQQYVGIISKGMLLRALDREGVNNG

EctD (S. alaskensis) = biological target: T6, EctD (S. alaskensis) (Sphingopyxis alaskensis, UniProt Q1GNW5); experiment: whole-cell biotransformation in E. coli FF4169, HPLC; conditions: 10 mM ectoine in medium, MMA with 0.4 M NaCl, 37 °C, 24 h; Fe(II) and 2-oxoglutarate of the cell
T6 construct: full length, Strep-tag II, plasmid pMP40, expressed in E. coli FF4169; homodimer
T6 sequence (Q1GNW5 1-306): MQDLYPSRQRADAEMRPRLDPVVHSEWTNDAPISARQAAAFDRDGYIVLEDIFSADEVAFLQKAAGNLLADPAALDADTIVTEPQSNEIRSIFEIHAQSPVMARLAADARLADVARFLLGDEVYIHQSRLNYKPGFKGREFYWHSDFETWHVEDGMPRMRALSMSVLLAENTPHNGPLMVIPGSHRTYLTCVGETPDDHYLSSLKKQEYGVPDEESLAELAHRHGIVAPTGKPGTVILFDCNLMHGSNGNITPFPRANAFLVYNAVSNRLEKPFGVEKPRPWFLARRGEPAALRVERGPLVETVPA

[1] = biological target: T7, EctD (P. stutzeri A1501), ectoine hydroxylase (Stutzerimonas stutzeri, UniProt A4VFY4); experiment: as above; conditions: 10 mM ectoine in medium, MMA with 0.4 M NaCl, 37 °C, 24 h; Fe(II) and 2-oxoglutarate of the cell
T7 construct: homodimer
T7 sequence (A4VFY4 1-302): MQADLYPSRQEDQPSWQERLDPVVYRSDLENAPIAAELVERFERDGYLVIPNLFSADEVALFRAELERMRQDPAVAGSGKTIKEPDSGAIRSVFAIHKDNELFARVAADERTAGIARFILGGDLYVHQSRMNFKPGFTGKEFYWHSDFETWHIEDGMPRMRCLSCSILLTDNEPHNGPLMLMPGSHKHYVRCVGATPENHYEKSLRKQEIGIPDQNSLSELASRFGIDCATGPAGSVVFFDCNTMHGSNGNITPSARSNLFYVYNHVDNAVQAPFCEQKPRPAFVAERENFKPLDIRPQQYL

ProP = biological target: T8, ProP (Escherichia coli, UniProt P0C0L7); experiment: inhibition of [[…]-14C]glycine betaine uptake, whole cells of ProP+ ProU- strain; conditions: 100 µM [1-14C]glycine betaine, MMA with 0.4 M NaCl, 37 °C, 5 min; unlabelled glycine betaine 1 mM; labelled compound
T8 construct: native chromosomal transporter in whole cells of a proU deletion strain
T8 sequence (P0C0L7 whole entry): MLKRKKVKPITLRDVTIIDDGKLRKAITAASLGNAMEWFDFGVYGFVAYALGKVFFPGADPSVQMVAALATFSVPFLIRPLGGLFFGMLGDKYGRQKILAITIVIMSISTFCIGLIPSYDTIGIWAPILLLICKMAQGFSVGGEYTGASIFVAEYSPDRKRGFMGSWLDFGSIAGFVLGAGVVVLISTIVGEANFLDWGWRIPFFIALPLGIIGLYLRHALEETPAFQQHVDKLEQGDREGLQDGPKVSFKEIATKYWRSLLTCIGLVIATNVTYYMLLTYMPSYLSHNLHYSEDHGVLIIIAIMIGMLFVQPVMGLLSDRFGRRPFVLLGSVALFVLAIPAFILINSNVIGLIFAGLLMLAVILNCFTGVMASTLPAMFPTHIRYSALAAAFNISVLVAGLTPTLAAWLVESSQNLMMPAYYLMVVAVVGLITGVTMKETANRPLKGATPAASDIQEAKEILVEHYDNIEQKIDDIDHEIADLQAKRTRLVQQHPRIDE

| % inhibition at 1000-fold excess (ProU ABC transporter; competitor 1000-fold excess (100 mM)) | % inhibition at tenfold excess (ProU ABC transporter; unlabelled glycine betaine 1 mM, labelled compound) | % inhibition at tenfold excess (ProP) | SMILES | whole-cell biotransformation in E. coli FF4169, HPLC (EctD (N. maritimus)) | whole-cell biotransformation in E. coli FF4169, HPLC (EctD (H. elongata)) | whole-cell biotransformation in E. coli FF4169, HPLC (EctD (A. ehrlichii)) | whole-cell biotransformation in E. coli FF4169, HPLC (EctD (P. lautus)) | whole-cell biotransformation in E. coli FF4169, HPLC (EctD (S. alaskensis)) | whole-cell biotransformation in E. coli FF4169, HPLC [1] |
| --- | --- | --- | --- | --- | --- | --- | --- | --- | --- |
| 45% |  |  | CC1=NCC[C@@H](C(=O)O)N1 [ectoine, (S)-2-methyl-1,4,5,6-tetrahydropyrimidine-4-carboxylic acid] | almost all of the provided ectoine had been converted into 5-hydroxyectoine | a mixture of the added ectoine and the newly produced 5-hydroxyectoine were observed | a mixture of the added ectoine and the newly produced 5-hydroxyectoine were observed | a mixture of the added ectoine and the newly produced 5-hydroxyectoine were observed | a mixture of the added ectoine and the newly produced 5-hydroxyectoine were observed | almost all of the provided ectoine had been converted into 5-hydroxyectoine |
|  | ~ 85% | ~ 85% | C[N+](C)(C)CC(=O)[O-] [glycine betaine] |  |  |  |  |  |  |
